Experimental data published in ChEMBL document CHEMBL1131546, “Synthesis and pharmacological evaluation of benzofuran-acetamides as "antineophobic" mitochondrial DBI receptor complex ligands” (Bioorg Med Chem Lett, 1998).

Tests used:
[1] = Binding affinity was determined as the ability to displace [3H]4''CD from the (mDRC) mitochondrial DBI receptor complex using primary cultures of glial cells; parameters: species or system Rattus norvegicus
Rattus norvegicus [2] = assay: Tested for antineophobic activity in rats using elevated maze test upon 70 umol/kg peroral administration, expressed as number of entries into the open arms after 45 min of administration; type: functional
Rattus norvegicus [3] = assay: Tested for antineophobic activity in rats using elevated maze test upon 70 umol/kg peroral administration, expressed as percent of time spent into open arms after 45 min of administration; type: functional
Rattus norvegicus [4] = assay: Tested for antineophobic activity in rats using elevated maze test upon 57 umol/kg peroral administration, expressed as percent of time spent into open arms after 45 min of administration; type: functional
Rattus norvegicus [5] = assay: Tested for antineophobic activity in rats using elevated maze test upon 57 umol/kg peroral administration, expressed as number of entries into the open arms after 45 min of administration; type: functional
[6] = Concentration required to stimulate pregnenolone formation in the mitochondria of C6-2B glioma cells.; type: functional, Rattus norvegicus
Rattus norvegicus [7] = assay: Tested for antineophobic activity in rats using elevated maze test upon 53 umol/kg peroral administration, expressed as number of entries into the open arms after 45 min of administration; type: functional
Rattus norvegicus [8] = assay: Tested for antineophobic activity in rats using elevated maze test upon 53 umol/kg peroral administration, expressed as percent of time spent into open arms after 45 min of administration; type: functional
Rattus norvegicus [9] = assay: Tested for antineophobic activity in rats using elevated maze test upon 59 umol/kg po administration, expressed as percent of time spent into open arms after 45 min of administration; type: functional
Rattus norvegicus [10] = assay: Tested for antineophobic activity in rats using elevated maze test upon 59 umol/kg peroral administration, expressed as number of entries into the open arms after 45 min of administration; type: functional

CCCCCCN(CCCCCC)C(=O)Cc1c(-c2ccc(N)cc2)oc2ccccc12
Ki [1]: 35 nM

CCCCCCN(CCCCCC)C(=O)Cc1c(-c2ccccc2)oc2ccc(Cl)cc12
No. of openarm entries (Rattus norvegicus [2]): 2.1
Time (Rattus norvegicus [3]): 4.7%
Ki [1]: 32 nM

CCCCCCN(CCCCCC)C(=O)Cc1c(-c2ccc(F)cc2)[nH]c2ccccc12
Time (Rattus norvegicus [4]): 4.5%
No. of openarm entries (Rattus norvegicus [5]): 2.1
EC50 [6]: 3 nM
Ki [1]: 4.4 nM

CCCCCCN(CCCCCC)C(=O)Cc1c(-c2ccc(F)cc2)oc2ccc(Cl)cc12
No. of openarm entries (Rattus norvegicus [7]): 2.3
Time (Rattus norvegicus [8]): 4.7%
Ki [1]: 32 nM

CCCCCCN(CCCCCC)C(=O)Cc1c(-c2ccc(I)cc2)oc2ccccc12
Ki [1]: 80 nM

CCCCCCN(CCCCCC)C(=O)Cc1c(-c2ccccc2)oc2ccccc12
Time (Rattus norvegicus [9]): 4.5%
Ki [1]: 14 nM
No. of openarm entries (Rattus norvegicus [10]): 2.6

CCCCCCN(CCCCCC)C(=O)Cc1c(-c2ccc(F)cc2)oc2ccccc12
Time (Rattus norvegicus [4]): 5.1%
No. of openarm entries (Rattus norvegicus [5]): 2.1
Ki [1]: 8 nM
